Data on seven compounds can be found in patent EP0091208A1, “Method for combating insect pests, and novel cyclopropane carboxylates useful as active ingredients therein” (IMPERIAL CHEMICAL INDUSTRIES PLC, priority 1982, dated 1983).

For orientation: LC50 means the concentration lethal to half of the exposed cells or organisms. Higher therefore signals a less lethal substance.

In brackets after ≈: the same amount, converted by molar mass.

Data set [1] relates to Musca domestica (houseflies - adults). Briefly: Insecticidal mortality test, contact, houseflies. In kind it is in vivo. As to conditions: cotton wool/milk, sugar, 1 day. The method, then: (§1) The activity of the compound was determined using a variety of insect pests. The compound was used in the form of liquid preparations containing 100, 50, 25, 10 or […] p.p.m. by weight of the compound. The preparations were made by dissolving the compound in a mixture of solvents consisting of 4 parts by volume of acetone and 1 part by volume of diacetone alcohol. The solutions were then diluted with water containing 0.01% by weight of a wetting agent sold under the trade name "LISSAPOL" NX until the liquid preparations contained the required concentration of the compound. "Lissapol" is a Trade Mark.
(§2) The test procedure adopted with regard to each pest was basically the same and comprised supporting a number of the pests on a medium which was usually a host plant or a foodstuff on which the pests feed, and treating either or both the pests and the medium with the preparations. The mortality of the pests was then assessed at periods usually varying from one to three days after the treatment.
(§3) The results of the tests are given in Table IIB for each of the products A to H at the rate in parts per million given in the second column as a grading of mortality on a scale of 0-9 wherein
(§4) In Table IIB the pest organism used is designated by a letter code and the pest species, the support medium or food, and the type and duration of test is given in Table IIA.

Data set [2] concerns Spodoptera littoralis (cotton leaf worm - larvae). In words: Insecticidal mortality test, contact/residual, cotton leaf worm. In kind it is in vivo. The settings on record: cabbage leaves, 3 days. The method, then:
as §1, §2, §3, §4

Data set [3] relates to Plutella xylostella (diamond back moth - larvae). Briefly: Insecticidal mortality test, residual, diamond back moth. In kind it is in vivo. The settings on record: cabbage leaves, 3 days. The method, then:
as §1, §2, §3, §4

Data set [4] deals with Aphis fabae (aphids). In words: Insecticidal mortality test, contact, aphids. In kind it is in vivo. As to conditions: French beans, 2 days. The method, then: as §1, §2, §3, §4
In data set [5] the test system is Diabrotica balteata (rootworm - larvae). Briefly: Insecticidal mortality test, contact, rootworm. In kind it is in vivo. As to conditions: filter paper, 3 days. The protocol:
as §1, §2, §3, §4

The nature of data set [6]: Fish toxicity, young trout. As to conditions: in vivo. From the text: (§5) This Example illustrates the improved safety to fish of the compounds for use in the method of the invention compared with known compounds of similar chemical type. Table III sets out the LC50 values for young trout and carp in parts per million for the compounds for use in the method of this invention and parts per billion for the known (reference) compounds.

The nature of data set [7]: Fish toxicity, young carp. The settings on record: in vivo.
Excerpt: as §5

In the case of `CC1(C)[C@H](C(=O)OCc2cccc(Oc3ccc(Cl)cc3)c2)[C@@H]1/C=C(\Cl)C(F)(F)F` (racemic) [Compound 5, (+)-3-(4-chlorophenoxy)benzyl (+)-cis-3-(Z-2-chloro-3,3,3-trifluoroprop-l-en-yl)-2,2-dimethylcyclopropane carboxylate], the “grading of mortality MD” value in data set [1] (rate 10 ppm) is 1 (from 10 to 19%); in data set [1] (rate 100 ppm), 9 (90 to 100%). Besides, the “grading of mortality SL” value in data set [2] (rate 10 ppm) and in data set [2] (rate 100 ppm) was 9 (90 to 100%) in each case. Besides, the “grading of mortality PX” value in data set [3] (rate 10 ppm) was 0 (less than 10% mortality); in data set [3] (rate 100 ppm) it was 9 (90 to 100%). For the same compound, the “grading of mortality AF” value in data set [4] (rate 10 ppm) and in data set [4] (rate 100 ppm) was 9 (90 to 100%) each time. For the same compound, the results for the “grading of mortality DB” value in data set [5] (rate 10 ppm) and in data set [5] (rate 100 ppm) were 3 (30 to 39%) and 5 (50 to 59%), respectively. The same compound came in with an LC50 in data set [6] (compounds of the invention) of 10 µg/mL (≈ 21.8 µM).
As to `CC1(C)[C@H](/C=C(\Cl)C(F)(F)F)[C@@H]1C(=O)OC(C#N)c1cccc(Oc2ccc(Br)cc2)c1` (mixture of isomers) [Compound 6, (+)-α-cyano-3-(4-bromophenoxy)benzyl (+)-cis-3-(Z-2-chloro-3,3,3-trifluoroprop-1-en-1-yl)-2,2-dimethylcyclopropane carboxylate], the “grading of mortality MD” value is given as 6 (60 to 69%) in data set [1] (rate 10 ppm) and 9 (90 to 100%) in data set [1] (rate 100 ppm). Moreover, the “grading of mortality SL” value in data set [2] (rate 10 ppm) and in data set [2] (rate 100 ppm) was 9 (90 to 100%) each time. In addition, the “grading of mortality PX” value in data set [3] (rate 10 ppm) is on record as 6 (60 to 69%); in data set [3] (rate 100 ppm), 7 (70 to 79%). Besides, the “grading of mortality AF” value in data set [4] (rate 10 ppm) and in data set [4] (rate 100 ppm) was 9 (90 to 100%) each time. Besides, the “grading of mortality DB” value is listed as 3 (30 to 39%) in data set [5] (rate 10 ppm) and 5 (50 to 59%) in data set [5] (rate 100 ppm). This compound also registered an LC50 in data set [7] (compounds of the invention) of 10 µg/mL (≈ 18.9 µM).
For the compound `CC1(C)[C@H](/C=C(\Cl)C(F)(F)F)[C@@H]1C(=O)OC(C#N)c1cccc(Oc2ccc(F)cc2)c1` (mixture of isomers) [Compound 7, (+)-α-cyano-3-(4-fluorophenoxy)benzyl (+)-cis-3-(Z-2-chloro-3,3,3-trifluoroprop-1-en-1-yl)-2,2-dimethylcyclopropane carboxylate], the “grading of mortality MD” value in data set [1] (rate 10 ppm) and in data set [1] (rate 100 ppm) was 0 (less than 10% mortality) throughout. The “grading of mortality SL” value in data set [2] (rate 10 ppm) and in data set [2] (rate 100 ppm) was 9 (90 to 100%) each time. The “grading of mortality PX” value in data set [3] (rate 10 ppm) and in data set [3] (rate 100 ppm) was 9 (90 to 100%) in each case. Further, the “grading of mortality AF” value in data set [4] (rate 10 ppm) and in data set [4] (rate 100 ppm) was 9 (90 to 100%) each time. Further, the entries for the “grading of mortality DB” value in data set [5] (rate 10 ppm) and in data set [5] (rate 100 ppm) were 5 (50 to 59%) and 9 (90 to 100%), respectively. Moreover, the LC50 in data set [6] (compounds of the invention) amounted to 1 µg/mL (≈ 2.14 µM).
For the compound `CC1(C)C(/C=C(\Cl)C(F)(F)F)C1C(=O)OC(C#N)c1cccc(Oc2ccccc2)c1` (racemic) [Cyhalothrin, (±)-α-cyano-3-phenoxybenzyl (±)-cis-3-(Z-2-chloro-3,3,3-trifluoroprop-1-en-1-yl)-2,2-dimethylcyclopropane carboxylate, reference compound], the LC50 in data set [6] (known (reference) compounds) was 0.00073 µg/mL (≈ 0.00162 µM); in data set [7] (known (reference) compounds), 0.00134 µg/mL (≈ 0.00298 µM).
Turning to `CC1(C)C(C=C(Cl)Cl)C1C(=O)OC(C#N)c1cccc(Oc2ccccc2)c1` (racemic) [Cypermethrin, (±)-α-cyano-3-phenoxybenzyl (±)-cis/trans-3-(2,2-dichlorovinyl)-2,2-dimethylcyclopropane carboxylate, reference compound], in data set [6] (known (reference) compounds), the LC50 was roughly 0.002 µg/mL (≈ 0.0048 µM).
With `CC1(C)[C@H](C(=O)OC(C#N)c2cccc(Oc3ccc(Cl)cc3)c2)[C@@H]1/C=C(\Cl)C(F)(F)F` (stereo partly drawn) [Compound 1, (+)-χ-cyano-3-(4-chlorophenoxy)benzyl (+)-cis-3-(Z-2-chloro-3,3,3-trifluoroprop-l-en-l-yl)-2,2-dimethylcyclopropane carboxylate], the “grading of mortality MD” value in data set [1] (rate 12 ppm), in data set [1] (rate 25 ppm), in data set [1] (rate 50 ppm) and in data set [1] (rate 100 ppm) was 9 (90 to 100%) each time. Moreover, the “grading of mortality SL” value is 0 (less than 10% mortality) in data set [2] (rate 12 ppm), 0 (less than 10% mortality) in data set [2] (rate 25 ppm), 9 (90 to 100%) in data set [2] (rate 50 ppm) and 9 (90 to 100%) in data set [2] (rate 100 ppm). For the same compound, the “grading of mortality PX” value is 2 (20 to 29%) in data set [3] (rate 12 ppm), 7 (70 to 79%) in data set [3] (rate 25 ppm), 9 (90 to 100%) in data set [3] (rate 50 ppm) and 9 (90 to 100%) in data set [3] (rate 100 ppm). Moreover, the “grading of mortality AF” value in data set [4] (rate 12 ppm), in data set [4] (rate 25 ppm), in data set [4] (rate 50 ppm) and in data set [4] (rate 100 ppm) was 9 (90 to 100%) throughout. The “grading of mortality DB” value was 0 (less than 10% mortality) in data set [5] (rate 12 ppm), 0 (less than 10% mortality) in data set [5] (rate 25 ppm), 9 (90 to 100%) in data set [5] (rate 50 ppm) and 9 (90 to 100%) in data set [5] (rate 100 ppm). Also, the LC50 in data set [6] (compounds of the invention) worked out at 20 µg/mL (≈ 41.3 µM).
Take `CC1(C)[C@H](/C=C(\Cl)C(F)(F)F)[C@H]1C(=O)OC(C#N)c1cccc(Oc2ccc(Cl)cc2)c1` (stereo partly drawn) [Compound 8, (+)-α-cyano-3-(4-chlorophenoxy)benzyl (+)-trans-3-(Z-2-chloro-3,3,3-trifluoroprop-l-en-yl)-2,2-dimethylcyclopropane carboxylate]: the “grading of mortality MD” value in data set [1] (rate 10 ppm) and in data set [1] (rate 100 ppm) was 9 (90 to 100%) each time. For the same compound, the “grading of mortality SL” value in data set [2] (rate 10 ppm) and in data set [2] (rate 100 ppm) was 9 (90 to 100%) each time. For the same compound, the figures for the “grading of mortality PX” value in data set [3] (rate 10 ppm) and in data set [3] (rate 100 ppm) were 8 (80 to 89%) and 9 (90 to 100%), respectively. Further, the “grading of mortality AF” value in data set [4] (rate 10 ppm) and in data set [4] (rate 100 ppm) was 9 (90 to 100%) in each case. Further, the “grading of mortality DB” value in data set [5] (rate 10 ppm) is 0 (less than 10% mortality); in data set [5] (rate 100 ppm) it was 5 (50 to 59%).
